How the values were obtained:
[1] = molecular target: T1, GDP-loaded KRAS4b (amino acids 1-169) G12C/C118S protein (Homo sapiens, UniProt P01116, C118S/G12C); assay: Covalent cysteine 12 modification by MALDI-TOF MS, GDP-loaded KRAS G12C; assay type: binding; details: 15 minutes reaction time point
T1 construct: KRAS4b (amino acids 1-169) G12C/C118S protein; made in house
How it was run: (§1)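 Percent modification comes from MALDI-TOF peak heights: the compound-adduct peak divided by the sum of the remaining-protein and adduct peaks. Reactions contained 1 μM protein and compound at a 1:2.5 ratio, in pH 7.3 HEPES buffer with NaCl and MgCl2, held 15 min at room temperature.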

[2] = molecular target: T2, GTP-loaded KRAS4b (amino acids 1-169) G12C/C118S protein (Homo sapiens, UniProt P01116, C118S/G12C); assay: Covalent cysteine 12 modification by MALDI-TOF MS, GTP-loaded KRAS G12C; assay type: binding; details: 15 minutes reaction time point
T2 construct: KRAS4b (amino acids 1-169) G12C/C118S protein; made in house
How it was run: as §1

[3] = molecular target: T3, GppNHp-loaded KRAS4b (amino acids 1-169) G12C/C118S protein (Homo sapiens, UniProt P01116, C118S/G12C); assay: Covalent cysteine 12 modification by MALDI-TOF MS, GppNHp-loaded KRAS G12C; assay type: binding; details: 15 minutes reaction time point
T3 construct: KRAS4b (amino acids 1-169) G12C/C118S protein; made in house
How it was run: as §1

pERK in NCI-H358 cells = assay: Cell-based pERK HTRF assay (pERK inhibition in H358 cells); details: 30 min incubation
How it was run: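 NCI-H358 cells were seeded at 4×10^4 cells/well in RPMI/10% FBS, then treated next day for 30 min at 0.25% DMSO (9-point, 3-fold series from 75 μM). Lysates were read by HTRF (d2/Eu cryptate antibody pair, 615 nm emission) after 4–24 h at room temperature to give pERK IC50.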

Row | SMILES | GDP-KRAS G12C percent of modification [1] | GTP-KRAS G12C percent of modification [2] | GppNHp-KRAS G12C percent of modification [3] | IC50 (pERK in NCI-H358 cells; Homo sapiens, NCI-H358, 0.5 h) | IC50 (pERK in NCI-H358 cells)
1 | C=CC(=O)N1C[C@H](N(C)c2nc(OC[C@@]34CCCN3C[C@H](F)C4)nc3c(F)c(-c4ccc(F)c5sc(N)c(C#N)c45)c(C(F)(F)F)cc23)C[C@H]1C (atropisomer, axis not shown) [Compound 177] | D (percent of modification <10%) | D (percent of modification <10%) | D (percent of modification <10%) | – | 0.1 to 1 µM
2 | C=CC(=O)N1CC[C@@H](N(CC)c2nc(OC[C@@H]3C[C@@H](OC)CN3C)nc3c(F)c(-c4ccc(F)c5sc(N)c(C#N)c45)c(C(F)(F)F)cc23)[C@H]1C (single isomer, unassigned) [Compound 116] | A (percent of modification ≥70%) | A (percent of modification ≥70%) | A (percent of modification ≥70%) | – | < 0.1 µM
3 | C=CC(=O)N1CC[C@@H](N(CC)c2nc(OC[C@@H]3C[C@@H](OC)CN3C)nc3c(F)c(-c4ccc(F)c5sc(N)c(C#N)c45)c(C(F)(F)F)cc23)[C@H]1C (single isomer, unassigned) [Compound 117] | D (percent of modification <10%) | D (percent of modification <10%) | D (percent of modification <10%) | – | > 1 µM
4 | C=CC(=O)N1CC[C@@H](N(C)c2nc(OC[C@@H]3C[C@@H](OC)CN3C)nc3c(F)c(-c4ccc(F)c5sc(N)c(C#N)c45)c(C(F)(F)F)cc23)[C@H]1C (single isomer, unassigned) [Compound 174] | D (percent of modification <10%) | D (percent of modification <10%) | D (percent of modification <10%) | – | 0.1 to 1 µM
5 | C=CC(=O)N1CC[C@@H](N(C)c2nc(OC[C@H]3C[C@@H](OC)CN3C)nc3c(F)c(-c4ccc(F)c5sc(N)c(C#N)c45)c(C(F)(F)F)cc23)[C@H]1C (single isomer, unassigned) [Compound 175] | D (percent of modification <10%) | D (percent of modification <10%) | D (percent of modification <10%) | – | 0.1 to 1 µM
6 | C=CC(=O)N1CCC(N(C)c2nc(OC[C@@H]3CCCN3C)nc3c(F)c(-c4nc(N)cc(C)c4C(F)(F)F)c(Cl)cc23)[C@H]1C (stereo partly drawn) [Compound 9] | B (50≤percent of modification <70%) | C (10%≤percent of modification <50%) | C (10%≤percent of modification <50%) | 0.1 to 1 µM | –
7 | C=CC(=O)N1CCC(N(CC)c2nc(OC[C@@]34CCCN3C[C@H](F)C4)nc3c(F)c(-c4ccc(F)c5sc(N)c(C#N)c45)ccc23)[C@H]1CC (stereo partly drawn) [Compound 11] | A (percent of modification ≥70%) | A (percent of modification ≥70%) | A (percent of modification ≥70%) | 0.1 to 1 µM | –
8 | C=CC(=O)N1CCC(N(CC)c2nc(OC[C@@]34CCCN3C[C@H](F)C4)nc3cc(-c4ccc(F)c5sc(N)c(C#N)c45)c(C#N)cc23)[C@H]1CC (stereo partly drawn) [Compound 14] | A (percent of modification ≥70%) | B (50≤percent of modification <70%) | A (percent of modification ≥70%) | 0.1 to 1 µM | –

The next lines start with the values.

Row | GDP-KRAS G12C percent of modification [1] | GTP-KRAS G12C percent of modification [2] | GppNHp-KRAS G12C percent of modification [3] | IC50 (pERK in NCI-H358 cells; Homo sapiens, NCI-H358, 0.5 h) | IC50 (pERK in NCI-H358 cells) | SMILES
9 | C (10%≤percent of modification <50%) | B (50≤percent of modification <70%) | C (10%≤percent of modification <50%) | < 0.1 µM | – | C=CC(=O)N1CC[C@H](N(CC)c2nc(OC[C@@]34CCCN3C[C@H](F)C4)nc3c(F)c(-c4ccc(F)c5sc(N)c(C#N)c45)c(C(F)(F)F)cc23)C1 (atropisomer, axis not shown) [Compound 171]
10 | A (percent of modification ≥70%) | A (percent of modification ≥70%) | A (percent of modification ≥70%) | < 0.1 µM | – | C=CC(=O)N1C[C@H](N(C)c2nc(OC[C@@]34CCCN3C[C@H](F)C4)nc3c(F)c(-c4ccc(F)c5sc(N)c(C#N)c45)c(C(F)(F)F)cc23)C[C@H]1C (atropisomer, axis not shown) [Compound 176]
11 | A (percent of modification ≥70%) | A (percent of modification ≥70%) | A (percent of modification ≥70%) | < 0.1 µM | – | C=CC(=O)N1CC[C@@H](N(C)c2nc(OC[C@@H]3C[C@@H](OC)CN3C)nc3c(F)c(-c4ccc(F)c5sc(N)c(C#N)c45)c(C(F)(F)F)cc23)[C@H]1C (single isomer, unassigned) [Compound 172]
12 | A (percent of modification ≥70%) | A (percent of modification ≥70%) | A (percent of modification ≥70%) | < 0.1 µM | – | C=CC(=O)N1CC[C@@H](N(C)c2nc(OC[C@H]3C[C@@H](OC)CN3C)nc3c(F)c(-c4ccc(F)c5sc(N)c(C#N)c45)c(C(F)(F)F)cc23)[C@H]1C (single isomer, unassigned) [Compound 173]
13 | A (percent of modification ≥70%) | A (percent of modification ≥70%) | A (percent of modification ≥70%) | < 0.1 µM | – | C=CC(=O)N1CC[C@@H](N(C)c2nc(OC[C@@]34CCCN3C[C@H](F)C4)nc3c(F)c(-c4ccc(F)c5sc(N)c(C#N)c45)ccc23)[C@H]1CC [Compound 4]
14 | A (percent of modification ≥70%) | A (percent of modification ≥70%) | A (percent of modification ≥70%) | < 0.1 µM | – | C=CC(=O)N1CCC(N(C)c2nc(OC[C@@]34CCCN3C[C@H](F)C4)nc3cc(-c4ccc(F)c5sc(N)c(C#N)c45)c(C#N)cc23)[C@H]1CC (stereo partly drawn) [Compound 7]
15 | C (10%≤percent of modification <50%) | C (10%≤percent of modification <50%) | C (10%≤percent of modification <50%) | < 0.1 µM | – | C=CC(=O)N1CCC(N(CC)c2nc(OC[C@@]34CCCN3C[C@H](F)C4)nc3c(F)c(-c4ccc(F)c5sc(N)c(C#N)c45)c(C(F)(F)F)cc23)[C@H]1CC (stereo partly drawn) [Compound 8]
16 | A (percent of modification ≥70%) | B (50≤percent of modification <70%) | B (50≤percent of modification <70%) | < 0.1 µM | – | C=CC(=O)N1CCC(N(C)c2nc(OC[C@@]34CCCN3C[C@H](F)C4)nc3c(F)c(-c4nc(N)cc(C)c4C(F)(F)F)c(Cl)cc23)[C@H]1C (stereo partly drawn) [Compound 10]
17 | C (10%≤percent of modification <50%) | C (10%≤percent of modification <50%) | C (10%≤percent of modification <50%) | < 0.1 µM | – | C=CC(=O)N1CCC(N(CC)c2nc(OC[C@@]34CCCN3C[C@H](F)C4)nc3c(F)c(-c4ccc(F)c5sc(N)c(C#N)c45)c(Cl)cc23)[C@H]1CC (stereo partly drawn) [Compound 12]
18 | A (percent of modification ≥70%) | A (percent of modification ≥70%) | A (percent of modification ≥70%) | < 0.1 µM | – | C=CC(=O)N1CC[C@@H](N(CC)c2nc(OC[C@@]34CCCN3C[C@H](F)C4)nc3c(F)c(-c4ccc(F)c5sc(N)c(C#N)c45)ccc23)[C@H]1C [Compound 17, 4-(4-(((2R,3R)-1-acryloyl-2-methylpyrrolidin-3-yl)(ethyl)amino)-8-fluoro-2-(((2R,7aS)-2-fluorotetrahydro-1H-pyrrolizin-7a(5H)-yl)methoxy)quinazolin-7-yl)-2-amino-7-fluorobenzo[b]thiophene-3-carbonitrile]
